Experimental data: patent US20060106078A1, “Prostamide receptor antagonists” (Allergan, Inc., priority 2003, published 2006)

Tests used:
Type in all cases: cell-based
[1] = tested on: cat iris sphincter (PGD2 response); assay: Cat iris sphincter contraction: effect on PGD2 response; settings: isolated cat iris sphincter, contractile response relative to 1×10^−7 M PGF2α, 30 min antagonist incubation; FIG. 3
Description: (§1) The compounds of Examples 1 and 2 were tested for prostamide antagonist activity as follows:
(§2) The smooth muscle tension of isolated tissue preparations was measured isometrically with force displacement transducers (Grass FT-03) and recorded on a Grass polygraph (Model 7G). The organ baths contained Krebs solution maintained at 37° C. and gassed with 95% O2: 5% CO2 to give a pH of 7.4. The Krebs solution had the following composition (mM): NaCl, 118.0; KCl, 4.7; KH2PO4, 1.2; CaCl2, 1.9; MgSO4, 1.18; NaHCO3, 25.0; glucose, 11.7; indomethacin, 0.001.
(§3) Adult domestic cats were sacrificed by intravenous overdose of sodium pentobarbitol (Anthony, Arcadia, Calif., USA). The eyes were enucleated immediately and placed on ice. The iris sphincter from each eye was dissected to provide two strips ˜3 mm wide and 15-20 mm long. The sphincter muscle was mounted vertically under 50 mg tension in a jacketed 10 ml organ bath. A 60 min. equilibration period was allowed before commencing each experiment. The response to 1×10^−7 M PGF2α was determined at the beginning of each experiment as a reference. After complete washout, and return to baseline tension, tissues were allowed to re-equilibrate for 30 min. Antagonist or vehicle were then added. […] Activity of test compounds was determined as contractile responses and expressed relative to the reference standard 1×10^−7 M PGF2α.

[2] = tested on: cat iris sphincter (prostamide D2 response); assay: Cat iris sphincter contraction: antagonism of prostamide D2 response; settings: isolated cat iris sphincter, contractile response relative to 1×10^−7 M PGF2α, 30 min antagonist incubation; FIG. 3
Description: as §1, §2, §3

[3] = tested on: cat iris sphincter (PGE2 response); assay: Cat iris sphincter contraction: effect on PGE2 response; settings: isolated cat iris sphincter, contractile response relative to 1×10^−7 M PGF2α, 30 min antagonist incubation; FIG. 4
Description: as §1, §2, §3

[4] = tested on: cat iris sphincter (PGF2α response); assay: Cat iris sphincter contraction: effect on PGF2α response; settings: isolated cat iris sphincter, contractile response relative to 1×10^−7 M PGF2α, 30 min antagonist incubation; FIG. 1, FIG. 2
Description: as §1, §2, §3

[5] = tested on: cat iris sphincter (prostamide E2 response); assay: Cat iris sphincter contraction: antagonism of prostamide E2 response; settings: isolated cat iris sphincter, contractile response relative to 1×10^−7 M PGF2α, 30 min antagonist incubation; FIG. 4
Description: as §1, §2, §3

[6] = tested on: cat iris sphincter (prostamide F2α response); assay: Cat iris sphincter contraction: antagonism of prostamide F2α response; settings: isolated cat iris sphincter, contractile response relative to 1×10^−7 M PGF2α, 30 min antagonist incubation; FIG. 1, FIG. 2
Description: as §1, §2, §3

| Compound | effect on response curve of PGD2 [1] | prostamide D2 antagonist activity (effect on response curve of prostamide D2) [2] | effect on response curve of PGE2 [3] | effect on response curve of PGF2α [4] | prostamide E2 antagonist activity (effect on response curve of prostamide E2) [5] | prostamide F2α antagonist activity (effect on response curve of prostamide F2α) [6] |
| --- | --- | --- | --- | --- | --- | --- |
| CCNC(=O)CCc1ccc(F)cc1CC1C2CCC(O2)C1c1nc(C(=O)NCCCCC2CCCCC2)co1 (centres unmarked) [Example 1, 2-{3-[2-(2-Ethylcarbamoyl-ethyl)-5-fluoro-benzyl]-7-oxa-bicyclo[2.2.1]hept-2-yl}-oxazole-4-carboxylic acid (4-cyclohexyl-butyl)-amide] | does not effect the response curve | displaces the response curve | does not effect the response curve | does not effect the response curve | displaces the response curve | displaces the response curve |
| O=C(CCc1ccc(F)cc1CC1C2CCC(O2)C1c1nc(C(=O)NCCCCC2CCCCC2)co1)NCCO (centres unmarked) [Example 2, 2-(3-{5-Fluoro-2-[2-(2-hydroxy-ethycarbamoyl)-ethyl]-benzyl}-7-oxa-bicyclo[2.2.1]hept-2-yl)-oxazole-4-carboxylic acid (4-cyclohexyl-butyl)-amide] | – | – | – | does not effect the response curve | – | displaces the response curve |
